The record followed here is US20100267636A1, “USE OF CYTOCHROME P450-METABOLIZED DRUGS AND GRF MOLECULES IN COMBINATION THERAPY” (THERATECHNOLOGIES INC., priority 2009, published 2010).

As a reminder, the AUC(0-inf) is total exposure, with the tail of the curve extrapolated. One may read the AUC(0-t) as exposure summed from dosing to a finite time, without extrapolation to infinity. Read a high AUC(0-t) as more exposure. In general, Cmax refers to the highest concentration seen after dosing. A word on the Tmax: it is the time at which the peak concentration occurs.

One data set is described as follows: clinical. The format is in vivo. The conditions noted are these: human; for AUC(0-inf) / AUC(0-t) / Cmax / Tmax / half-life: both sexes, 80 mg. How it is done:
[…] […] N=58 healthy adult (male and female) subjects were enrolled. Dosing occurred in two groups. […] PK/statistics: PK parameters were calculated using standard noncompartmental approaches. […] The final ANOVA models included group, sequence, treatment, and period nested within group as fixed effects and subject nested within group-by-sequence as a random effect. The treatment-by-group term was excluded from the models for the groups combined, to be conservative.

Data set [1] can be described thus: Plasma PK of TH9507 in simvastatin studies (ELISA). It counts as in vivo, human. How it is done: 2 ml of TH9507 (1 mg/ml injectable solution) was administered by subcutaneous injection under fasting conditions once daily for 7 consecutive days (daily dose of 2 mg TH9507).
N=58 healthy adult (male and female) subjects were enrolled. Dosing occurred in two groups.
PK/statistics: PK parameters were calculated using standard noncompartmental approaches.
On the technique in general: In an ELISA, binding on a coated surface is turned into a signal by an enzyme label.

In the next data set the test system is CYP3A. The data set is described as follows: Impact of TH9507 on CYP3A activity (simvastatin drug interaction studies). It counts as in vivo, human. The conditions noted are these: 2 mg TH9507 days 1 to 7, 80 mg simvastatin as CYP3A substrate on Day 6. From the text: The final ANOVA models included group, sequence, treatment, and period nested within group as fixed effects and subject nested within group-by-sequence as a random effect. The treatment-by-group term was excluded from the models for the groups combined, to be conservative.

Where [2] appears, read: both sexes, human, plasma, sc, 2 mg.

Take `CCC(C)(C)C(=O)O[C@H]1C[C@@H](C)C=C2C=C[C@H](C)[C@H](CC[C@@H](O)C[C@@H](O)CC(=O)O)[C@H]21` [Simvastatin Acid, simvastatin acid]: in the data set “clinical” (in vivo, po), the area under the curve AUC(0-inf) is 0.0468 µg·h/mL, the area under the curve AUC(0-t) was found to be 0.0434 µg·h/mL, the peak level (Cmax) was 4.33 ng/mL and the Tmax stood at 4.5 h. For the same compound, the half-life in the data set “clinical” (in vivo, po) was 8.07 h. In the data set “clinical” (in vivo, sc), the AUC(0-inf) was determined as 0.0399 µg·h/mL, the AUC(0-t) was determined as 0.0375 µg·h/mL, the Cmax turned out to be 4.28 ng/mL and the Tmax stood at 4.5 h. The compound also showed a half-life in the data set “clinical” (in vivo, sc) of 6.91 h. In the data set “clinical” (both, in vivo), the “AUC0-inf, A/B Ratio (%)” value was 85.2%; the “AUC0-t, A/B Ratio (%)” value was determined as 86.3%; the “Cmax, A/B Ratio (%)” value was determined as 99.0%.

`CCC(C)(C)C(=O)O[C@H]1C[C@@H](C)C=C2C=C[C@H](C)[C@H](CC[C@@H]3C[C@@H](O)CC(=O)O3)[C@H]21` [Simvastatin, (1S,3R,7S,8S,8aR)-8-{2-[(2R,4R)-4-hydroxy-6-oxooxan-2-yl]ethyl}-3,7-dimethyl-1,2,3,7,8,8a-hexahydronaphthalen-1-yl 2,2-dimethylbutanoate, reference compound]: the half-life in “clinical” (plasma, po, read-out: T1/2, Treatment B (converted)) was 8.56 h; in the data set “clinical” (plasma, sc, read-out: T1/2, Treatment A (converted)), 7.62 h.

Turning to `CC/C=C/CC(=O)N[C@@H](Cc1ccc(O)cc1)C(=O)N[C@@H](C)C(=O)N[C@@H](CC(=O)O)C(=O)N[C@@H](C)C(=O)N[C@H](C(=O)N[C@@H](Cc1ccccc1)C(=O)N[C@H](C(=O)N[C@@H](CC(N)=O)C(=O)N[C@@H](CO)C(=O)N[C@@H](Cc1ccc(O)cc1)C(=O)N[C@@H](CCCNC(=N)N)C(=O)N[C@@H](CCCCN)C(=O)N[C@H](C(=O)N[C@@H](CC(C)C)C(=O)NCC(=O)N[C@@H](CCC(N)=O)C(=O)N[C@@H](CC(C)C)C(=O)N[C@@H](CO)C(=O)N[C@@H](C)C(=O)N[C@@H](CCCNC(=N)N)C(=O)N[C@@H](CCCCN)C(=O)N[C@@H](CC(C)C)C(=O)N[C@@H](CC(C)C)C(=O)N[C@@H](CCC(N)=O)C(=O)N[C@@H](CC(=O)O)C(=O)N[C@H](C(=O)N[C@@H](CCSC)C(=O)N[C@@H](CO)C(=O)N[C@@H](CCCNC(=N)N)C(=O)N[C@@H](CCC(N)=O)C(=O)N[C@@H](CCC(N)=O)C(=O)NCC(=O)N[C@@H](CCC(=O)O)C(=O)N[C@@H](CO)C(=O)N[C@@H](CC(N)=O)C(=O)N[C@@H](CCC(N)=O)C(=O)N[C@@H](CCC(=O)O)C(=O)N[C@@H](CCCNC(=N)N)C(=O)NCC(=O)N[C@@H](C)C(=O)N[C@@H](CCCNC(=N)N)C(=O)N[C@@H](C)C(=O)N[C@@H](CCCNC(=N)N)C(=O)N[C@@H](CC(C)C)C(N)=O)[C@@H](C)CC)C(C)C)[C@@H](C)O)[C@@H](C)CC` [TH9507, (hexenoyl trans-3)hGRF(1-44)NH2], in data set [1] (TH9507 2 mg s.c. once daily, day 6 samples, simvastatin studies, median), the Tmax was determined as 9 min. Further, in data set [1] (setting [2]), the AUC(0-inf) came to 0.00105 µg·h/mL, the AUC(0-t) was determined as 0.000888 µg·h/mL, the Cmax was found to be 3.36 ng/mL and the half-life was 8.4 min. For the same compound, the “impact on CYP3A activity” value in the data set with CYP3A is recorded as “not significant”.
